We go through ten molecules from patent US20240408085A1, “COMPOUND FOR DEGRADATION OF BCL-2 FAMILY PROTEINS AND MEDICAL APPLICATION THEREOF” (XIZANG HAISCO PHARMACEUTICAL CO., LTD., priority 2021, published 2024).

Each structure is given as a SMILES string.

This assay concerns MOLT-4 cells. Briefly: Cell proliferation activity in MOLT-4 cells (72 h, cell viability luminescence). In kind it is cell-based, human. The settings on record: Homo sapiens, read-out: IC50 for the inhibition of MOLT-4 cell proliferation. How it is done: MOLT-4 cells are acute lymphoblastic leukemia cell lines in humans. The cells were purchased from ATCC. Culture conditions: RPMI-1640+10% FBS+1% penicillin-streptomycin solution. The cells were cultured in a 37° C., 5% CO2 incubator. The cells were plated in a 96-well plate, with 5×10^3 cells/well. After plating, compounds at different concentrations were added and cultured in a 37° C., 5% CO2 incubator for 72 h. After the completion of culture, a reagent (Promega, G7573) for detecting the cell viability was added. The mixture was uniformly mixed for 2 minutes and then incubated at room temperature for 10 minutes. The luminescence signal was detected with a multimode plate reader (BMG, PHERAstar FSX). The luminescence readings were processed using GraphPad Prism 8.0 software and the IC50 values of the compounds for the inhibition of cell proliferation and the maximum inhibition rate were calculated according to formula (2) and formula (3), respectively, wherein Tadministration denotes the cell signal readings obtained after incubation with the compounds for 72 h, and Tvehicle denotes the cell signal readings obtained after incubation with the vehicle control for 72 h.
Calculation of Max inhibition %: after the processing according to formula (2), the inhibition rate of the compounds at the highest concentration was calculated.

With `Cc1ncsc1-c1ccc([C@H](C)NC(=O)[C@@H]2C[C@@H](O)CN2C(=O)[C@@H](NC(=O)CCCCCC(=O)N2CCN(CC[C@H](CSc3ccccc3)Nc3ccc(S(=O)(=O)NC(=O)c4ccc(N5CCN(CC6=C(c7ccc(Cl)cc7F)CCC(C)(C)C6)CC5)cc4)cc3S(=O)(=O)C(F)(F)F)CC2)C(C)(C)C)cc1` [Compound 12, (2S,4R)-1-((S)-2-(7-(4-((R)-3-((4-(N-(4-(4-((4′-chloro-2′-fluoro-4,4-dimethyl-3,4,5,6-tetrahydro-[1,1′-biphenyl]-2-yl)methyl)piperazin-1-yl)benzoyl)sulfamoyl)-2-((trifluoromethyl)sulfonyl)phenyl)amino)-4-(phenylthio)butyl)piperazin-1-yl)-7-oxoheptanamido)-3,3-dimethylbutanoyl)-4-hydroxy-N—((S)-1-(4-(4-methylthiazol-5-yl)phenyl)ethyl)pyrrolidine-2-carboxamide], the IC50 is less than 500 nM.

Take `Cc1ncsc1-c1ccc([C@H](C)NC(=O)[C@@H]2C[C@@H](O)CN2C(=O)[C@@H](NC(=O)CCCCCCC(=O)N2C[C@@H]3C[C@H]2CN3CC[C@H](CSc2ccccc2)Nc2ccc(S(=O)(=O)NC(=O)c3ccc(N4CCN(CC5=C(c6ccc(Cl)cc6)CCC(C)(C)C5)CC4)cc3)cc2S(=O)(=O)C(F)(F)F)C(C)(C)C)cc1` [Compound 25, (2S,4R)-1-((S)-2-(8-((1S,4S)-5-((R)-3-((4-(N-(4-(4-((4′-chloro-4,4-dimethyl-3,4,5,6-tetrahydro-[1,1′-biphenyl]-2-yl)methyl)piperazin-1-yl)benzoyl)sulfamoyl)-2-((trifluoromethyl)sulfonyl)phenyl)amino)-4-(phenylthio)butyl)-2,5-diazabicyclo[2.2.1]heptan-2-yl)-8-oxooctanamido)-3,3-dimethylbutanoyl)-4-hydroxy-N—((S)-1-(4-(4-methylthiazol-5-yl)phenyl)ethyl)pyrrolidine-2-carboxamide]: the IC50 was less than 500 nM.

Consider `Cc1ncsc1-c1ccc([C@H](C)NC(=O)[C@@H]2C[C@@H](O)CN2C(=O)[C@@H](NC(=O)CCCCCC(=O)N2C[C@H]3CN(CC[C@H](CSc4ccccc4)Nc4ccc(S(=O)(=O)NC(=O)c5ccc(N6CCN(CC7=C(c8ccc(Cl)cc8)CCC8(CC8)C7)CC6)cc5)cc4S(=O)(=O)C(F)(F)F)C[C@H]3C2)C(C)(C)C)cc1` [Compound 18, cis-(2S,4R)-1-((S)-2-(7-(5-((R)-3-((4-(N-(4-(4-((6-(4-chlorophenyl)spiro[2.5]oct-5-en-5-yl)methyl)piperazin-1-yl)benzoyl)sulfamoyl)-2-((trifluoromethyl)sulfonyl)phenyl)amino)-4-(phenylthio)butyl)hexahydropyrrolo[3,4-c]pyrrol-2(1H)-yl)-7-oxoheptanamido)-3,3-dimethylbutanoyl)-4-hydroxy-N—((S)-1-(4-(4-methylthiazol-5-yl)phenyl)ethyl)pyrrolidine-2-carboxamide], for which the IC50 is less than 500 nM.

With `Cc1ncsc1-c1ccc([C@H](C)NC(=O)[C@@H]2C[C@@H](O)CN2C(=O)[C@@H](NC(=O)CCCCCC(=O)N2C[C@]3(C)CN(CC[C@H](CSc4ccccc4)Nc4ccc(S(=O)(=O)NC(=O)c5ccc(N6CCN(CC7=C(c8ccc(Cl)cc8)CCC(C)(C)C7)CC6)cc5)cc4S(=O)(=O)C(F)(F)F)C[C@]3(C)C2)C(C)(C)C)cc1` [Compound 26, cis-(2S,4R)-1-((S)-2-(7-(5-((R)-3-((4-(N-(4-(4-((4′-chloro-4,4-dimethyl-3,4,5,6-tetrahydro-[1,1′-biphenyl]-2-yl)methyl)piperazin-1-yl)benzoyl)sulfamoyl)-2-((trifluoromethyl)sulfonyl)phenyl)amino)-4-(phenylthio)butyl)-3a,6a-dimethylhexahydropyrrolo[3,4-c]pyrrol-2(1H)-yl)-7-oxoheptanamido)-3,3-dimethylbutanoyl)-4-hydroxy-N—((S)-1-(4-(4-methylthiazol-5-yl)phenyl)ethyl)pyrrolidine-2-carboxamide], the IC50 was less than 500 nM.

`Cc1ncsc1-c1ccc([C@H](C)NC(=O)[C@@H]2C[C@@H](O)CN2C(=O)[C@@H](NC(=O)CCCCCCC(=O)N2CCN(CC[C@H](CSc3ccccc3)Nc3ccc(S(=O)(=O)NC(=O)c4ccc(N5CCN(CC6=C(c7ccc(Cl)cc7F)CCCCC6)CC5)cc4)cc3S(=O)(=O)C(F)(F)F)CC2)C(C)(C)C)cc1` [Compound 36, (2S,4R)-1-((S)-2-(8-(4-((R)-3-((4-(N-(4-(4-((2-(4-chloro-2-fluorophenyl)cyclohept-1-en-1-yl)methyl)piperazin-1-yl)benzoyl)sulfamoyl)-2-((trifluoromethyl)sulfonyl)phenyl)amino)-4-(phenylthio)butyl)piperazin-1-yl)-8-oxooctanamido)-3,3-dimethylbutanoyl)-4-hydroxy-N—((S)-1-(4-(4-methylthiazol-5-yl)phenyl)ethyl)pyrrolidine-2-carboxamide]: the IC50 is less than 500 nM.

As for `Cc1ncsc1-c1ccc([C@H](C)NC(=O)[C@@H]2C[C@@H](O)CN2C(=O)[C@@H](NC(=O)CCCCCC(=O)N2CCC3(CC2)CN(CC[C@H](CSc2ccccc2)Nc2ccc(S(=O)(=O)NC(=O)c4ccc(N5CCN(CC6=C(c7ccc(Cl)cc7)CCC(C)(C)C6)CC5)cc4)cc2S(=O)(=O)C(F)(F)F)C3)C(C)(C)C)cc1` [Trifluoroacetate of compound 9, (2S,4R)-1-((S)-2-(7-(2-((R)-3-((4-(N-(4-(4-((4′-chloro-4,4-dimethyl-3,4,5,6-tetrahydro-[1,1′-biphenyl]-2-yl)methyl)piperazin-1-yl)benzoyl)sulfamoyl)-2-((trifluoromethyl)sulfonyl)phenyl)amino)-4-(phenylthio)butyl)-2,7-diazaspiro[3.5]nonan-7-yl)-7-oxoheptanamido)-3,3-dimethylbutanoyl)-4-hydroxy-N—((S)-1-(4-(4-methylthiazol-5-yl)phenyl)ethyl)pyrrolidine-2-carboxamide], the IC50 is less than 500 nM.

Consider `Cc1ncsc1-c1ccc([C@H](C)NC(=O)[C@@H]2C[C@@H](O)CN2C(=O)[C@@H](NC(=O)CCCCCCC(=O)N2C[C@H]3CN(CC[C@H](CSc4ccccc4)Nc4ccc(S(=O)(=O)NC(=O)c5ccc(N6CCN(CC7=C(c8ccc(Cl)cc8F)CCCCC7)CC6)cc5)cc4S(=O)(=O)C(F)(F)F)C[C@H]3C2)C(C)(C)C)cc1` [Compound 40, cis-(2S,4R)-1-((S)-2-(8-(5-((R)-3-((4-(N-(4-(4-((2-(4-chloro-2-fluorophenyl)cyclohept-1-en-1-yl)methyl)piperazin-1-yl)benzoyl)sulfamoyl)-2-((trifluoromethyl)sulfonyl)phenyl)amino)-4-(phenylthio)butyl)hexahydropyrrolo[3,4-c]pyrrol-2(1H)-yl)-8-oxooctanamido)-3,3-dimethylbutanoyl)-4-hydroxy-N—((S)-1-(4-(4-methylthiazol-5-yl)phenyl)ethyl)pyrrolidine-2-carboxamide], for which the IC50 is less than 500 nM.

On to `Cc1ncsc1-c1ccc([C@H](C)NC(=O)[C@@H]2C[C@@H](O)CN2C(=O)[C@@H](NC(=O)CCCCCC(=O)N2CC3CC2CN3CC[C@H](CSc2ccccc2)Nc2ccc(S(=O)(=O)NC(=O)c3ccc(N4CCN(CC5=C(c6ccc(Cl)cc6)CCC(C)(C)C5)CC4)cc3)cc2S(=O)(=O)C(F)(F)F)C(C)(C)C)cc1` (stereo partly drawn) [Compound 2, (2S,4R)-1-((2S)-2-(7-(5-((R)-3-((4-(N-(4-(4-((4′-chloro-4,4-dimethyl-3,4,5,6-tetrahydro-[1,1′-biphenyl]-2-yl)methyl)piperazin-1-yl)benzoyl)sulfamoyl)-2-((trifluoromethyl)sulfonyl)phenyl)amino)-4-(phenylthio)butyl)-2,5-diazabicyclo[2.2.1]heptan-2-yl)-7-oxoheptanamido)-3,3-dimethylbutanoyl)-4-hydroxy-N—((S)-1-(4-(4-methylthiazol-5-yl)phenyl)ethyl)pyrrolidine-2-carboxamide], for which the IC50 was less than 500 nM.

Take `Cc1ncsc1-c1ccc([C@H](C)NC(=O)[C@@H]2C[C@@H](O)CN2C(=O)[C@@H](NC(=O)CCCCCCC(=O)N2C[C@@H]3C[C@H]2CN3CC[C@H](CSc2ccccc2)Nc2ccc(S(=O)(=O)NC(=O)c3ccc(N4CCN(CC5=C(c6ccc(Cl)cc6F)CCCCC5)CC4)cc3)cc2S(=O)(=O)C(F)(F)F)C(C)(C)C)cc1` [Compound 38, (2S,4R)-1-((S)-2-(8-((1S,4S)-5-((R)-3-((4-(N-(4-(4-((2-(4-chloro-2-fluorophenyl)cyclohept-1-en-1-yl)methyl)piperazin-1-yl)benzoyl)sulfamoyl)-2-((trifluoromethyl)sulfonyl)phenyl)amino)-4-(phenylthio)butyl)-2,5-diazabicyclo[2.2.1]heptan-2-yl)-8-oxooctanamido)-3,3-dimethylbutanoyl)-4-hydroxy-N—((S)-1-(4-(4-methylthiazol-5-yl)phenyl)ethyl)pyrrolidine-2-carboxamide]: the IC50 is less than 500 nM.

On to `Cc1ncsc1-c1ccc([C@H](C)NC(=O)[C@@H]2C[C@@H](O)CN2C(=O)[C@@H](NC(=O)CCCCCC(=O)N2CCN(CC[C@H](CSc3ccccc3)Nc3ccc(S(=O)(=O)NC(=O)c4ccc(N5CCN(CC6=C(c7ccc(Cl)cc7)CCOC6)CC5)cc4)cc3S(=O)(=O)C(F)(F)F)CC2)C(C)(C)C)cc1` [Compound 5, (2S,4R)-1-((S)-2-(7-(4-((R)-3-((4-(N-(4-(4-((4-(4-chlorophenyl)-5,6-dihydro-2H-pyran-3-yl)methyl)piperazin-1-yl)benzoyl)sulfamoyl)-2-((trifluoromethyl)sulfonyl)phenyl)amino)-4-(phenylthio)butyl)piperazin-1-yl)-7-oxoheptanamido)-3,3-dimethylbutanoyl)-4-hydroxy-N—((S)-1-(4-(4-methylthiazol-5-yl)phenyl)ethyl)pyrrolidine-2-carboxamide], for which the IC50 was less than 500 nM.
